Measurements reported in patent US11802128B2, “Azetidine and pyrrolidine PARP1 inhibitors and uses thereof” (Xinthera, Inc., priority 2021, dated 2023).

Experiments:
[1] = tested on: MDA-MB-436 (mutated BRCA1) cells; test: Cell growth inhibition assay (CellTiter-Glo cell viability, 7 days); type: cell-based; settings: Homo sapiens, 168 h, MDA-MB-436, 7 days
Source text: (§1) The objective of this study is to evaluate the effect of invention compounds on cell proliferation through the cell viability assay in DLD-1 BRCA2(−/−) and parental isogenic pair and MDA-MB-436 (mutated BRCA1) cell lines. The CellTiter-Glo (CTG) based cell viability assay is designed to determine the number of viable cells in the culture because of compound effect, by quantifying ATP, which indicates the presence of metabolically active cells.
(§2) DLD-1 BRCA2(−/−) and parental isogenic pair were cultured in RPMI 1640 supplemented with 10% fetal bovine serum (FBS), and MDA-MB-436 cells were cultured in DMEM supplemented with 10% FBS. Both are culture at 37° C. with 5% CO2. Invention compounds were distributed to the 384 well plate (Corning, 3764) using Echo acoustic liquid handler to form a 1:3 serially diluted final concentration with top dose of 10 or 30 μM. The cells were seeded into the plate in the density of 50 cells/well (DLD-1 parental), 200 cells/well (DLD-1 BRCA2−/−), or 500 cells/well (MDA-MB-436). After a short spun, the cells were cultured in a well moisturized incubator at 37° C. with 5% CO2 for 7 days without disturbance. The cell viability was measured by CellTiter Glo 2.0 assay kit (Promega, G9243), and growth inhibition rate was calculated and plotted against final compound concentration, and the data were fitted in Xfit to generate IC50.

[2] = tested on: DLD-1 BRCA2(−/−) cells; test: as above; type: cell-based; settings: Homo sapiens, 168 h
Source text: as §1, §2

Row | Compound | EC50 [1] [nM] | EC50 [2] [nM]
1 | CCc1cc2ncc(CN3CC[C@H](Oc4ccc(C(=O)NC)nc4)C3)cc2[nH]c1=O [Example 1, 5-{[(3S)-1-[(7-ethyl-6-oxo-5H-1,5-naphthyridin-3-yl)methyl]pyrrolidin-3-yl]oxy}-N-methylpyridine-2-carboxamide] | > 1000 | > 1000
2 | CCc1cc2ncc(CN3C[C@@H](F)[C@H](Oc4ccc(C(=O)NC)nc4)C3)cc2[nH]c1=O [Example 5, 5-{[(3R,4R)-1-[(7-ethyl-6-oxo-5H-1,5-naphthyridin-3-yl)methyl]-4-fluoropyrrolidin-3-yl]oxy}-N-methylpyridine-2-carboxamide] | > 1000 | > 1000
3 | CCc1cc2ncc(CN3C[C@@H](F)[C@@H](Oc4ccc(C(=O)NC)nc4)C3)cc2[nH]c1=O [Example 9, 5-(((3S,4R)-1-((7-ethyl-6-oxo-5,6-dihydro-1,5-naphthyridin-3-yl)methyl)-4-fluoropyrrolidin-3-yl)oxy)-N-methylpicolinamide] | 25 | 72
4 | CCc1cc2ncc(CN3CC[C@@H](N(C)c4ccc(C(=O)NC)nc4)C3)cc2[nH]c1=O [Example 11, 5-{[(3R)-1-[(7-ethyl-6-oxo-5H-1,5-naphthyridin-3-yl)methyl]pyrrolidin-3-yl](methyl)amino}-N-methylpyridine-2-carboxamide] | 19 | 28
5 | CNC(=O)c1ccc(OC2CN(Cc3cnc4cc(C5CC5)c(=O)[nH]c4c3)C2)cn1 [Example 16, 5-({1-[(7-cyclopropyl-6-oxo-5H-1,5-naphthyridin-3-yl)methyl]azetidin-3-yl}oxy)-N-methylpyridine-2-carboxamide] | 18 | 49
6 | CCNC(=O)c1ccc(O[C@H]2CN(Cc3cnc4cc(CC)c(=O)[nH]c4c3)[C@@H]2C)cn1 [Example 67] | 0.65 | 0.97
7 | CCc1cc2ncc(CN3C[C@H](Oc4ccc(C#N)c(F)c4)[C@H]3C)cc2[nH]c1=O [Example 68] | 18 | 15
8 | Cc1cc2ncc(CN3C[C@H](Oc4ccc(C(=O)N[C@H]5C[C@@H](F)C5)nc4)[C@H]3C)cc2[nH]c1=O [Example 81] | 1.7 | 3
9 | Cc1cc2ncc(CN3C[C@H](Oc4ccc(C(=O)NC5CCC5)nc4)[C@H]3C)cc2[nH]c1=O [Example 85] | 1.3 | 1.8
10 | CCc1cc2ncc(CN3C[C@H](n4ccc5nc(C(=O)NC6CC6)ccc54)[C@H]3C)cc2[nH]c1=O [Example 86] | 1.8 | 3.4
11 | CNC(=O)c1ccc2c(ccn2[C@H]2CN(Cc3ccc4[nH]c(=O)c(C5CC5)cc4n3)[C@@H]2C)n1 [Example 87] | 12 | 20
12 | CNC(=O)c1ccc(O[C@H]2CN(Cc3ccc4nc(C5CC5)c(=O)[nH]c4c3F)[C@@H]2C)cn1 [Example 97] | 21 | 34
13 | C[C@@H]1[C@@H](Oc2ccc(C(=O)NC3CC3)nc2)CN1Cc1ccc2cc(Cl)c(=O)[nH]c2c1F [Example 99] | 1.7 | 4
14 | CCc1nc2ccc(CN3C[C@H](Oc4ccc(C(=O)NC)nc4F)[C@H]3C)c(F)c2[nH]c1=O [Example 100] | 5.9 | 11
15 | CCc1nc2ccc(CN3C[C@H](Oc4ccc(C(=O)NC5CC5)nc4F)[C@H]3C)c(F)c2[nH]c1=O [Example 101] | 3.1 | 5.4
16 | CCc1cc2ncc(CN3C[C@H](Oc4ccc(C(=O)NC5CC5)nc4F)[C@H]3C)cc2[nH]c1=O [Example 104] | 0.85 | 1.9
17 | C[C@@H]1[C@@H](Oc2ccc(C(=O)NC3CC3)nc2F)CN1Cc1cnc2cc(Cl)c(=O)[nH]c2c1 [Example 105] | 0.93 | 2.2
18 | CCc1cc2c(F)cc(CN3C[C@H](Oc4ccc(C(=O)NC)nc4)[C@H]3C)c(F)c2[nH]c1=O [Example 108] | 12 | 12

Now from value to compound:

Row | EC50 [1] [nM] | EC50 [2] [nM] | Compound
19 | 42 | 73 | CCc1cc2ncc(CN3C[C@H](Oc4ccc(C(=O)NC)nc4)[C@@H](F)C3)cc2[nH]c1=O [Example 6, 5-(((3S,4S)-1-((7-ethyl-6-oxo-5,6-dihydro-1,5-naphthyridin-3-yl)methyl)-4-fluoropyrrolidin-3-yl)oxy)-N-methylpicolinamide]
20 |  | > 1000 | CCc1cc2ncc(CN3C[C@H](F)[C@H](Oc4ccc(C(=O)NC)nc4)C3)cc2[nH]c1=O [Example 8, 5-{[(3R,4S)-1-[(7-ethyl-6-oxo-5H-1,5-naphthyridin-3-yl)methyl]-4-fluoropyrrolidin-3-yl]oxy}-N-methylpyridine-2-carboxamide]
21 | 12 | 38 | CCc1cc2ncc(CN3CC[C@@H](Cc4ccc(C(=O)NC)nc4)C3)cc2[nH]c1=O [Example 13, 5-{[(3R)-1-[(7-ethyl-6-oxo-5H-1,5-naphthyridin-3-yl)methyl]pyrrolidin-3-yl]methyl}-N-methylpyridine-2-carboxamide]
22 |  | > 1000 | CCc1cc2ncc(CN3CC(C)(Oc4ccc(C(=O)NC)nc4)C3)cc2[nH]c1=O [Example 15, 5-({1-[(7-ethyl-6-oxo-5H-1,5-naphthyridin-3-yl)methyl]-3-methylazetidin-3-yl}oxy)-N-methylpyridine-2-carboxamide]
23 | > 1000 | > 1000 | CCc1cc2ncc(CN3C[C@@H](Oc4ccc(C(=O)NC)nc4)[C@@H]3C)cc2[nH]c1=O [Example 18, 5-{[(2S,3R)-1-[(7-ethyl-6-oxo-5H-1,5-naphthyridin-3-yl)methyl]-2-methylazetidin-3-yl]oxy}-N-methylpyridine-2-carboxamide]
24 | > 1000 | > 1000 | CCc1cc2ncc(CN3C[C@@H](Oc4ccc(C(=O)NC)nc4)[C@H]3C)cc2[nH]c1=O [Example 19, 5-{[(2R,3R)-1-[(7-ethyl-6-oxo-5H-1,5-naphthyridin-3-yl)methyl]-2-methylazetidin-3-yl]oxy}-N-methylpyridine-2-carboxamide]
25 | 91 | 93 | CCc1cc2ncc(CN3C[C@H](Oc4ccc(F)cc4C#N)[C@H]3C)cc2[nH]c1=O [Example 65]
26 | 5.6 | 11 | CCc1cc2ncc(CN3C[C@H](Oc4ccc(C#N)cc4F)[C@H]3C)cc2[nH]c1=O [Example 69]
27 | 0.49 | 0.89 | [2H]C([2H])(c1cnc2cc(CC)c(=O)[nH]c2c1)N1C[C@H](Oc2ccc(C(=O)NC3CC3)nc2)[C@H]1C [Example 71]
28 | 50 | 33 | CCc1cc2ncc(CN3C[C@H](Oc4ccc(C#N)cc4C#N)[C@H]3C)cc2[nH]c1=O [Example 72]
29 | 35 | 32 | C[C@@H]1[C@@H](Oc2ccc(C#N)nc2)CN1Cc1cnc2cc(Cl)c(=O)[nH]c2c1 [Example 78]
30 | 1.9 | 6.3 | CCc1cc2ncc(CN3C[C@H](Oc4ccc(C(=O)NC5CC5)nc4C#N)[C@H]3C)cc2[nH]c1=O [Example 79]
31 | 11 | 22 | CCc1cc2ncc(CN3C[C@H](n4ccc5nc(C#N)ccc54)[C@H]3C)cc2[nH]c1=O [Example 83]
32 | 3.4 | 6.3 | CCNC(=O)c1ccc2c(ccn2[C@H]2CN(Cc3cnc4cc(CC)c(=O)[nH]c4c3)[C@@H]2C)n1 [Example 88]
33 | 1.1 | 1.6 | C[C@@H]1[C@@H](Oc2ccc(C(=O)NC3CCC3)nc2)CN1Cc1cnc2cc(C(F)F)c(=O)[nH]c2c1 [Example 92]
34 | 5 | 7.2 | CCc1nc2ccc(CN3C[C@H](Oc4ccc(C(=O)NC)nc4)[C@H]3C)c(F)c2[nH]c1=O [Example 93]
35 | 11 | 43 | Cc1nc2ccc(CN3C[C@H](Oc4ccc(C(=O)NC5CC5)nc4)[C@H]3C)c(F)c2[nH]c1=O [Example 94]
36 | 3.2 | 3.5 | CCc1nc2ccc(CN3C[C@H](Oc4ccc(C(=O)NC5CC5)nc4)[C@H]3C)c(F)c2[nH]c1=O [Example 95]
37 | > 1000 | > 1000 | CNC(=O)c1ccc2c(ccn2[C@H]2CN(Cc3ccc4nc(C)c(=O)[nH]c4c3F)[C@@H]2C)n1 [Example 96]
38 | 29 | 61 | CNC(=O)c1ccc(O[C@H]2CN(Cc3ccc4nc(C)c(=O)[nH]c4c3F)[C@@H]2C)c(F)n1 [Example 98]
39 | 110 | 49 | CNC(=O)c1ccc(O[C@H]2CN(Cc3cc(F)c4nc(C)c(=O)[nH]c4c3F)[C@@H]2C)cn1 [Example 102]
40 | 30 | 27 | Cc1nc2ccc(CN3C[C@H](Oc4ccc(C(=O)NC5CC5)nc4F)[C@H]3C)c(F)c2[nH]c1=O [Example 103]
41 | 5 | 8.3 | CNC(=O)c1ccc(O[C@H]2CN(Cc3ccc4cc(Cl)c(=O)[nH]c4c3F)[C@@H]2C)cn1 [Example 106, 5-{[(2R,3S)-1-[(3-chloro-8-fluoro-2-oxo-1H-quinolin-7-yl)methyl]-2-methylazetidin-3-yl]oxy}-N-methylpyridine-2-carboxamide]
42 | 17 | 30 | CCc1nc2c(F)cc(CN3C[C@H](Oc4ccc(C(=O)NC)nc4)[C@H]3C)c(F)c2[nH]c1=O [Example 107]
